Test results published in patent US20240085429A1, “ALTERING PROTEIN FUNCTION BY PHARMACOLOGICAL TARGETING OF MEMBRANE DOMAINS” (University of Virginia Patent Foundation, priority 2021, published 2024).
Where a name gives a salt, the structure may show the parent alone.

Key:
[1] = system: GPMVs isolated from HeLa cells; assay: High-throughput screen of the Cayman bioactive lipid library for effects on GPMV phase behavior (% phase separated vesicles, NBD-DSPE phase preference); design: species or system human; settings: for Effect on % phase separated vesicles: final drug concentration 1 μM, NBD-DSPE channel; for % phase separated z-score / Pordered z-score: Table 4; for Pordered z-score: NBD-DSPE
Protocol: This approach is not practical for high throughput screening applications, which typically are performed at a single temperature. Changes in the percentage of phase-separated GPMVs were monitored at a single temperature in response to the addition of small molecules as a surrogate for measuring Tmisc directly (FIG. 1A). This approach requires that a significant fraction of GPMVs are phase separated under control conditions, such that experimentally-induced changes can be readily detected.
In phase separated vesicles these markers are enriched in their preferred domains, such that a given vesicle contains a co-existing NBD-DSPE-rich phase and a DiD-rich phase. In contrast, NBD-DSPE and DiD colocalize in a single uniform phase in GPMVs that are not phase separated. We also optimized conditions to isolate and plate GPMVs in multi-well plates.
To provide proof-of-concept, the Cayman lipid library containing ˜850 bioactive lipid-like compounds in the Vanderbilt High-throughput Screening Facility was screened, using […] of each compound across three independent screens. All screens were carried out using an automated microscope/high-content imaging system and robotic plate handler at RT. […] Compounds were initially scored based on their capacity to alter the percentage of phase separated vesicles (FIG. 2A).
HeLa cells were obtained from ATCC (cat #CCL-2) and cultured at 37° C. in 5% CO2 in a humidified tissue culture incubator. […] In brief, cells were plated in 150 mm tissue culture dishes the day before the experiment, to yield a confluence of 70-80% the day of the experiment. To generate GPMVs, cells were rinsed twice in 10 ml of GPMV buffer (2 mM DTT, 25 mM formaldehyde, 150 mM NaCl, 10 mM HEPES, 2 mM CaCl2), pH=7.4) and subsequently incubated in 12 ml of GPMV buffer at 37° C. with gentle shaking at 70 rpm for 1.5 h. The raft marker NBD-DSPE (1,2-distearoyl-sn-glycero-3-phosphoethanolamine-N-(7-nitro-2-1,3-benzoxadiazol-4-yl; Avanti Polar Lipids) and the non-raft marker DiD (1,1′-dioctadecyl-3,3,3′,3′-tetramethylindodicarbocyanine perchlorate; cat #D307 Thermo Scientific) were added from stock solutions in ethanol to the GPMV suspension at final concentrations of 5-6 μg/ml and 1 μg/ml, respectively, for the initial screenings. For some experiments, cells were prelabelled with 5 μg/ml DiD for 8 min at 4° C. and washed several times prior to GPMVs generation. Screening was performed the same day that GPMVs were generated.
[…] GPMVs suspension in GPMV buffer was then added to each well of a 96-well plate to obtain a final drug concentration of 1 μM. The GPMVs were allowed to settle to the bottom of the plates for 1.5 h prior to imaging. Samples were prepared and imaged at RT. The screen was repeated on three different days using three separately prepared batches of GPMVs (3 biological replicates).
Image acquisition was performed with an ImageXpress Micro XL automated microscope (Molecular Devices) using a Nikon 40X 0.6 NA Super Plan Fluor ELWD objective and a Lumencor Sola solid-state light source. Laser autofocus was employed at each site to obtain the best focus z-plane for each channel. […] Sixteen sites were captured per well using a 4.2 MP widefield scientific cMOS camera with a camera binning of 1. Each plate took approximately 1.3 h to image. Multiple plates were loaded to a plate carousel (ThermoScientific), shuttled to/from the ImageXpress via a ThermoScientific CRS F3 robot arm, and automatically run through the Momentum scheduling software (Thermo). To analyze the data, images and metadata were exported as TIFF files and subjected to image analysis using a custom MATLAB-based program as described below.

GPMVs from HeLa cells = assay: Di4 fluorescence lifetime imaging (lipid packing in GPMVs); design: species or system human; settings: TLCK 1 μM, C6-ceramide 1 μM, MβCD 5 mM; for phase state of GPMVs in FLIM images: room temperature; for average Di4 lifetime: single-phase GPMVs (MβCD: average across all domains), control 2.53±0.06 ns, mean±SD
Text: It was also of interest how TLCK and C6-ceramide impact other properties of the membrane compared to treatments such as cholesterol depletion that are commonly used to disrupt rafts in cells (Zidovetzki & Levitan, 2007). To test this, we examined their effects on membrane lipid packing and fluidity using a fluorescent reporter of membrane packing, Di-4-[…] (Di4) (Jin et al., 2006; Owen et al., 2006; Sezgin et al., 2014; Levental et al., 2020b; Lorent et al., 2020). As a control, we subjected GPMVs to cholesterol depletion using 5 mM MβCD. The photophysical characteristics of Di4, including its lifetime, are dependent on lipid packing in membranes. In particular, a lower Di4 lifetime is indicative of loose packing and a more fluid membrane environment whereas higher Di4 lifetimes point to a less fluid membranes and tighter lipid packing. […] The phase separated vesicles were characterized by two populations of lifetimes, corresponding to the Lo phase (higher lifetime) and Ld phase (lower lifetime) (FIGS. 11A-11F).
GPMVs were prepared as previously described by Sezgin, E, et al., Nat Protoc 2012, 7 (6), 1042-51. In brief, HeLa cells were washed twice with GPMV buffer (2 mM CaCl2)/10 mM HEPES/0.15 M NaCl, pH 7.4), then washed twice with GPMV active buffer (GPMV buffer containing 25 mM formaldehyde and 2 mM DTT). Cells were then incubated with GPMV active buffer for 1-2 hours at 37° C. with shaking at 90-95 RPM. The GPMV-containing supernatant was decanted into a centrifuge tube and GPMVs were allowed to settle for 1 h. Aliquots of GPMVs (100 μL) were pipetted from the bottom of the Eppendorf tube into separate tubes and treated with DMSO (0.1%), 1 μM TLCK, 1 μM C6-ceramide or 5 mM MbCD. After 5 min, Di 4 […] (Di4) (Thermo Scientific) was added to a final concentration of […] from a stock solution of 1 mg/mL Di4 in ethanol. The GPMVs were then sandwiched between two coverslips coated with 1 mg/mL bovine serum albumin (BSA) solution and allowed to incubate for an additional 20 min prior to lifetime measurements.
Di4 lifetime images were performed on a Leica TCS SP8 system comprising a Leica DMi8 inverted scanning confocal microscope with time-correlated single photon counting (TC-SPC) system and an 80 MHz-pulsed supercontinuum white light laser which allows continuously tunable excitation in the visible range coupled with filter-free detection. Samples were imaged using an HC PL APO CS2 63X/1.20 water objective. Di4 was excited at 488 nm and the emission was collected in the 550-800 nm range. The photon count rate was kept under 0.5 photons per laser pulse by adjusting the laser power, and sufficient frames were cumulatively acquired to obtain at least 100 photons per pixel. The fluorescence decay curves were fit with a bi-exponential re-convolution function adjusted to the instrument response function, and the average intensity-weighted lifetime was calculated for individual vesicles or area of interest and represented in the FLIM images as Di4 lifetime. Data are reported from two independent experiments. Statistical analyses were performed using GraphPad Prism 9.3.0.

Compound	Effect on % phase separated vesicles ([1]; HeLa GPMVs, RT)	% phase separated z-score ([1]; HeLa GPMVs, final 1 μM, RT)	Pordered z-score ([1]; HeLa GPMVs, final 1 μM, RT)	phase state of GPMVs in FLIM images (GPMVs from HeLa cells)	average Di4 lifetime (GPMVs from HeLa cells) [ns]	Effect on Pang(ϕ) ([1]; NBD-DSPE raft phase preference, HeLa GPMVs, final 1 μM, RT)	raft modulation in the GPMV model ([1]; screen result in words)
CCCCCCCCCCCCC/C=C/[C@@H](O)[C@H](CO)NC(=O)CCCCC [C6 Ceramide (d18:1/6:0)]	↓	−3.01	0.76	contained a single membrane phase	2.53±0.11		
Cc1ccc(S(=O)(=O)N[C@@H](CCCCN)C(=O)CCl)cc1 [TLCK hydrochloride, Nα-Tosyl-Lys Chloromethyl Ketone]	↑	6.73	5.69	mixture of phase separated	2.43±0.06	↑	potent raft stabilizer
